The text below walks through data of patent US8404664B2, “Phosphonated Rifamycins and uses thereof for the prevention and treatment of bone and joint infections” (Targanta Therapeutics, Inc., priority 2005, dated 2013).

Molecules are shown by their SMILES. Values after ≈ are worked out from the molar mass of the structure shown.

Data set [1] concerns S. aureus ATCC 13709. Kind of data set: Antibacterial susceptibility (MIC), NCCLS broth microdilution. The format is cell-based. The essentials:
(§1)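 Two-fold serial dilutions in DMSO tested in cation-adjusted Mueller Hinton broth per NCCLS M26-A, 5×10^5 c.f.u./mL inoculum, 1.25% final DMSO, duplicates.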

The subject of data set [2] is S. aureus ATCC 43300 (Fluoroquinolone sensitive MRSA). The description is as above. In kind it is cell-based. The essentials: as §1
The subject of data set [3] is S. aureus BK85 (Fluoroquinolone resistant MRSA). Described as above. The format is cell-based. The essentials:
as §1

The next data set concerns S. aureus RN4220. Described as above. In kind it is cell-based. Particulars: CAMHB, 37° C., 18 h. The essentials:
as §1

In data set [4] the test system is S. aureus ATCC 13709 Novobiocin and Rifampicin resistant variant. Description: microbe, parasite or virus in culture. The format is cell-based. The essentials:
as §1

For data set [5], the system named is S. aureus ATCC 13709. Kind of data set: Antibacterial susceptibility (MIC) in the presence of serum. In kind it is cell-based.
For data set [6], the system named is E. coli LBB925 (tolC mutant). Description: Antibacterial susceptibility (MIC), NCCLS broth microdilution. In kind it is cell-based. Particulars: tolC mutant.
A short description of data set [7]: Regeneration of drug from bone powder-bound prodrug. In kind it is in vitro ADME. Particulars: for % Conversion of bone-bound prodrug to parent drug: 24 h incubation, 37° C. How it is done: Amounts of parent drug “regenerated” from the phosphonated prodrug were measured as follows. Washed bone powder-bound prodrugs from the above experiment were resuspended in 400 μL PBS+2% DMSO or in 400 μL 50% (v/v in PBS+2% DMSO) human or rat serum. The suspension was incubated overnight at 37° C., centrifuged at 13,000 rpm for 2 min and the supernatant was recovered. The amount of regenerated parent drug in the supernatant was determined by measurements using the microbiological assay that was previously described for the prodrugs themselves. The amount of prodrug was deduced from standard curves of known amounts of parent drug that were used as reference for each experiment.

In data set [8] the test system is S. aureus ATCC 13709 Novobiocin resistant mutant (bone infection). Kind of data set: Prophylactic efficacy in rat model of S. aureus bone infection. In kind it is in vivo. Particulars: rat tibia 24 h postinfection; single dose 20 mg/kg parent drug equivalent, 3 days prior to infection. The protocol:
Specifically, a spontaneous Novobiocin resistant mutant strain of S. aureus ATCC 13709 (a clinical osteomyelitis isolate), was grown overnight at 37° C. in brain heart infusion broth (BHIB). After 16 h of growth, cells were subcultured into fresh BHIB and incubated for 4 to 5 h at 37° C. The cells were washed twice with phosphate-buffered saline (PBS) and resuspended in BHIB supplemented with 10% (vol./vol.) fetal bovine serum at a density of approximately 10^10 colony forming units (CFU)/ml (based upon turbidimetry). The suspension was aliquoted and a portion was used to check the CFU count. The culture was stored frozen (−80° C.) and was used without subculture. For use as an inoculum the culture was thawed, diluted in PBS and kept in an ice bath until it was used.
Animals were infected as described by O'Reilly et al. (Antimicrobial Agents and Chemotherapy (1992), 36(12): 2693-97) to generate the bone infection. Female CD rats (age, 57 to 70 days; n=5/group; Charles River, St-Constant, Canada) were anaesthetized by isofluorane before and during the surgery. Following complete induction of anesthesia, the rat was placed ventral side up and hair was shaved from the surgical site. The skin over the leg was cleaned and disinfected (proviodine-ethanol 70%). A longitudinal incision below the knee joint was made in the sagital plane. The incision was made over the bone below the “knee joint” (tibia head or condyle) but not completely extending to the ankle. A high speed drill fitted with a 2 mm bulb bit was used to drill a hole into the medullar cavity of the tibia. Rats were injected intra-tibially with 0.05 ml 5% sodium morrhuate (sclerosing agent) and then with 0.05 ml of S. aureus suspension (ca. 2×10^7 CFU/rat). The hole was sealed by applying a small amount of dry dental cement which immediately absorbs fluids and adheres to the site. The wound was closed using 3 metal skin clips. Moxifloxacin (as a positive control) was injected once at 10 mg/kg intravenously 1 h postinfection in saline, while the Rifamycin derived prodrugs (prepared in 0.9% saline) were injected at the dose indicated in Table 3 as a single intravenous bolus at different time points prior to the infection.
Infected rats were sacrificed by CO2 asphyxiation 24 h postinfection to monitor the bacterial CFU count. Infected tibiae were removed, dissected free of soft tissue, and weighed. The bones were ground, resuspended in 5 ml 0.9% NaCl, serially diluted and processed for quantitative cultures. For compounds 50, 68 and 81, 1 ml of the 0.9% NaCl solution was added to 50 mg of charcoal before serial dilutions. Treatment efficacy was measured in terms of Log viable bacteria (Log CFU per gram of bone). […] The limit of detection is 2 Log CFU. […] Differences were considered significant when the P value was <0.05 when comparing treated infected animals to the untreated infected ones. The doses used, the amount of time separating the treatment from the time of infection and the treatment outcomes are shown in Table 3.

Regarding `CO[C@H]1/C=C/O[C@@]2(C)Oc3c(C)c(O)c4c(=O)c(c5oc6cc(N7CCC(OC(=O)CCC(=O)NC(P(=O)(O)O)P(=O)(O)O)CC7)cc(O)c6nc-5c4c3C2=O)NC(=O)/C(C)=C\C=C\[C@H](C)[C@H](O)[C@@H](C)[C@@H](O)[C@@H](C)[C@H](OC(C)=O)[C@@H]1C` [Compound 68], the “Minimum inhibitory concentration, S. aureus ATCC 13709” value in the data set with S. aureus ATCC 13709 [1] turned out to be 0.0625 µg/mL (≈ 0.0533 µM). In data set [2], the “Minimum inhibitory concentration, S. aureus ATCC 43300” value is 0.0625 µg/mL (≈ 0.0533 µM). Moreover, the “Minimum inhibitory concentration, S. aureus BK85” value in data set [3] amounted to 0.25 µg/mL (≈ 0.213 µM). Also, the “Minimum inhibitory concentration, S. aureus RN4220” value with S. aureus RN4220 was determined as 0.25 µg/mL (≈ 0.213 µM). Also, the “Activity against the Rifampicin resistant variant of S. aureus ATCC13709 (in words)” value in [4] was “complete lack of activity”. Besides, in data set [4] (Novobiocin and Rifampicin resistant variant), the “Minimum inhibitory concentration, S. aureus ATCC 13709 variant” value was greater than 128 µg/mL. Also, in the data set with S. aureus ATCC 13709 [5] (50% Human Serum), the “Minimum inhibitory concentration, S. aureus ATCC 13709 + 50% Human Serum” value was determined as 1 µg/mL. Also, in the data set on S. aureus ATCC 13709 [5] (50% Mouse Serum), the “Minimum inhibitory concentration, S. aureus ATCC 13709 + 50% Mouse Serum” value is 1 µg/mL. Also, the “Minimum inhibitory concentration, S. aureus ATCC 13709 + 50% Rat Serum” value in the data set with S. aureus ATCC 13709 [5] (50% Rat Serum) came to 2 µg/mL. The “Minimum inhibitory concentration, E. coli LBB925” value in data set [6] was 64 µg/mL (≈ 54.6 µM). Further, the “Regeneration of parent drug once bound to bone (in words)” value in data set [7] is given as “only slightly regenerates”. Further, the “% Conversion of bone-bound prodrug to parent drug” value in data set [7] (50% Rat Serum) is listed as 0.24%; in data set [7] (PBS) it was 0.02%. Further, in [7] (serum compared to PBS), the “Impact of the medium on the rate of regeneration of parent drug (in words)” value is “significant acceleration”. In addition, the Measured bacterial titer in data set [8] is 4.86 ± 0.66 Log CFU/g of bone.
